# Target: GCN2 kinase (Homo sapiens (Human), UniProt Q9P2K8)
# Assay: GCN2 Enzyme Inhibition Assay (Transcreener ADP2 fluorescence polarization)
# Format: biochemical
# Conditions: 280 μM ATP, 200 μM (RS)7 peptide, 4 nM GCN2, 25° C.
# Procedure: Compounds were screened for their ability to inhibit GCN2 kinase activity using a Transcreener® ADP^2 fluorescence polarization assay that detects ADP levels (BellBrook Labs, WI). Assays were carried out in a buffer consisting of 25 mM Tris-HCl (pH 7.5), 50 mM NaCl, 10 mM MgCl2 and 1 mM DTT. […] Assays were carried out at 25° C. in the presence of a (typical) final concentration of 4 nM GCN2 kinase. An assay buffer containing GCN2 kinase and (RS)7 was prepared. […] The plate was incubated for 10 minutes at 25° C. prior to the addition of 4.7 μL of ATP stock buffer to initiate the enzyme reaction. The reaction was allowed to proceed for 1 hour at 25° C., prior to the addition of 10 μL detection buffer (consisting of appropriate concentrations of ADP^2 antibody and ADP Alexa633 tracer in 1× stop and detect buffer as supplied by BellBrook Labs). […] Percentage inhibition of enzyme activity was then calculated at each compound dose. IC50 and Ki(app) (using known assay and kinetic parameters) values were calculated from percentage inhibition data using a non-linear, tight-binding algorithm. All data analysis was undertaken using the Screener® software package (Genedata, Switzerland).
# Sequence of GCN2 kinase (Q9P2K8 whole entry): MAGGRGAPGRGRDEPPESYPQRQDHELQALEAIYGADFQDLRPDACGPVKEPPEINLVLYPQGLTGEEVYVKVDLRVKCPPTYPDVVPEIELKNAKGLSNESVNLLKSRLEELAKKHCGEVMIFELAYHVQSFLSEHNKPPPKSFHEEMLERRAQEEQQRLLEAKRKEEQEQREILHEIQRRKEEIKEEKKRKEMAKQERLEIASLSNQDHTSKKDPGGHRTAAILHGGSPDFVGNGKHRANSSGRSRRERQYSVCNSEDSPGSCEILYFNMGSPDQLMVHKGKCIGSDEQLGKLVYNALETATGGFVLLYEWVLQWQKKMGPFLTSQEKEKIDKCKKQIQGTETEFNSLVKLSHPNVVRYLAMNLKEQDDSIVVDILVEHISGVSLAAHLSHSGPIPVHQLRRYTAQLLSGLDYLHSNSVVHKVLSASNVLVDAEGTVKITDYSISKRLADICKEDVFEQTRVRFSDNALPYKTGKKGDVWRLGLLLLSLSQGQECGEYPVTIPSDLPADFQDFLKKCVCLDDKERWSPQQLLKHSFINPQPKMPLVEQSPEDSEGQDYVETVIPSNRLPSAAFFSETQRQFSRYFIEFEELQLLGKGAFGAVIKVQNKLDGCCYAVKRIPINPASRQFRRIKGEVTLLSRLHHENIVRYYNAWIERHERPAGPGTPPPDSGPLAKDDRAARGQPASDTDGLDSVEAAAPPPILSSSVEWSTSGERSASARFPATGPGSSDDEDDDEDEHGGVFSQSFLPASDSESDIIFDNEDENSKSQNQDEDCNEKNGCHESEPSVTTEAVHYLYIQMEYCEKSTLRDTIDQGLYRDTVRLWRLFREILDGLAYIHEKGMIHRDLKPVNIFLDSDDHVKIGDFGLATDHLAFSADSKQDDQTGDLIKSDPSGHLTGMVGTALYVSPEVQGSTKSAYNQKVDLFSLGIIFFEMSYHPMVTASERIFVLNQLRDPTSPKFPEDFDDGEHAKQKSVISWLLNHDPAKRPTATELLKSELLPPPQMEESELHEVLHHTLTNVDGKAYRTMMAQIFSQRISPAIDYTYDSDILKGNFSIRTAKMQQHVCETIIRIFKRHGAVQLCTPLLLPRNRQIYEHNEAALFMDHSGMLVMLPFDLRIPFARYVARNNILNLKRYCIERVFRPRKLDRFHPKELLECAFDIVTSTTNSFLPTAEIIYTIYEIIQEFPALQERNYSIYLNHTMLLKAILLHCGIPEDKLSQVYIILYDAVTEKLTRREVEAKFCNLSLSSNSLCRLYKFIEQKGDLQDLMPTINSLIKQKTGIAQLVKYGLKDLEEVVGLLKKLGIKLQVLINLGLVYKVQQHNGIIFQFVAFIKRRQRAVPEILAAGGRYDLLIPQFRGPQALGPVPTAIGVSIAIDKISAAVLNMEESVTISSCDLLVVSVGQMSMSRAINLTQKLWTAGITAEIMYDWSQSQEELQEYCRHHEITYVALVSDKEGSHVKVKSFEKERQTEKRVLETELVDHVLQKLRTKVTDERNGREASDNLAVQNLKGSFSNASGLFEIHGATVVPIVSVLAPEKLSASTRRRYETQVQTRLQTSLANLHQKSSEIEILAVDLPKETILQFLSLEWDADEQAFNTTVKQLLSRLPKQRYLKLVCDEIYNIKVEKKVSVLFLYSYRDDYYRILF
row,SMILES,IC50 [nM]
1,"O=C(CO)N[C@H]1C[C@H](O)CN(c2ccnc(-c3cnc4ccc(C(F)(F)F)cn34)n2)C1 [I-253, 2-hydroxy-N-((3S,5S)-5-hydroxy-1-(2-(6-(trifluoromethyl)imidazo[1,2-a]pyridin-3-yl)pyrimidin-4-yl)piperidin-3-yl)acetamide]",100 to 1000
2,"NC(=O)[C@@H]1CCCN(c2ccnc(-c3cnc4ccc(Cl)cn34)n2)C1 [I-164, (R)-1-(2-(6-chloroimidazo[1,2-a]pyridin-3-yl)pyrimidin-4-yl)piperidine-3-carboxamide]",10 to 100
3,"O=C(N1CCN(c2ccnc(-c3cnc4ccc(C(F)(F)F)cn34)n2)CC1c1cn[nH]c1)C1(C(F)F)CC1 (stereo not drawn) [I-488, (2-(1H-pyrazol-4-yl)-4-(2-(6-(trifluoromethyl)imidazo[1,2-a]pyridin-3-yl)pyrimidin-4-yl)piperazin-1-yl)(1-(difluoromethyl)cyclopropyl)methanone]",10 to 100
4,"C[C@H]1[C@H](C(N)=O)NCCN1c1ccnc(-c2cnc3cc(F)c(C4CC4)cn23)n1 [I-454, (2R,3 S)-4-(2-(6-cyclopropyl-7-fluoroimidazo[1,2-a]pyridin-3-yl)pyrimidin-4-yl)-3-methylpiperazine-2-carboxamide]",10 to 100
5,"CS(=O)(=O)NCC1C[C@@H]2CC[C@H]1N(c1ccnc(-c3cnc4ccc(C(F)F)cn34)n1)C2 (stereo partly drawn) [I-394, N-(((1R,4S)-2-(2-(6-(difluoromethyl)imidazo[1,2-a]pyridin-3-yl)pyrimidin-4-yl)-2-azabicyclo[2.2.2]octan-6-yl)methyl)methanesulfonamide]",100 to 1000
6,"O=C1CCC(C(=O)N2CCN(c3ccnc(-c4cnc5ccc(C(F)(F)F)cn45)n3)CC2c2cn[nH]c2)N1 (stereo not drawn) [I-469, 5-(2-(1H-pyrazol-4-yl)-4-(2-(6-(trifluoromethyl)imidazo[1,2-a]pyridin-3-yl)pyrimidin-4-yl)piperazine-1-carbonyl)pyrrolidin-2-one]",10 to 100
7,"CC(C)(C)OC(=O)N1CC2(C1)CN(c1ccnc(-c3cnc4ccc(C(F)(F)F)cn34)n1)CC(C)(C)O2 [I-292, tert-butyl 6,6-dimethyl-8-(2-(6-(trifluoromethyl)imidazo[1,2-a]pyridin-3-yl)pyrimidin-4-yl)-5-oxa-2,8-diazaspiro[3.5]nonane-2-carboxylate]",100 to 1000
8,"CC(O)C(=O)N[C@H]1C[C@H](O)CN(c2ccnc(-c3cnc4ccc(C(F)(F)F)cn34)n2)C1 (stereo partly drawn) [I-254, 2-hydroxy-N-((3S,5S)-5-hydroxy-1-(2-(6-(trifluoromethyl)imidazo[1,2-a]pyridin-3-yl)pyrimidin-4-yl)piperidin-3-yl)propanamide]",100 to 1000
9,"Cc1[nH]ncc1C1N[C@H](C)CN(c2nccc(-c3cnc4ccc(C(F)(F)F)cn34)n2)[C@@H]1C (stereo partly drawn) [I-173, 3-(2-((2R,5R)-2,5-dimethyl-3-(5-methyl-1H-pyrazol-4-yl)piperazin-1-yl)pyrimidin-4-yl)-6-(trifluoromethyl)imidazo[1,2-a]pyridine]",100 to 1000
10,"C[C@H]1[C@@H](c2cn[nH]c2)NCCN1c1ccnc(-c2cnc3ccc(C(F)(F)F)cn23)n1 [I-534, 3-(4-((2 S,3R)-2-methyl-3-(1H-pyrazol-4-yl)piperazin-1-yl)pyrimidin-2-yl)-6-(trifluoromethyl)imidazo[1,2-a]pyridine]",100 to 1000
11,"Cc1noc([C@H]2CN(c3ccnc(-c4cnc5ccc(C(F)F)cn45)n3)C[C@@H](C)O2)n1 [I-375, (2R,6R)-4-(2-(6-(difluoromethyl)imidazo[1,2-a]pyridin-3-yl)pyrimidin-4-yl)-2-methyl-6-(3-methyl-1,2,4-oxadiazol-5-yl)morpholine]",10 to 100
12,"Cc1nnc(C)n1[C@H]1C[C@@H](C)CN(c2nccc(-c3cnc4ccc(C(F)(F)F)cn34)n2)C1 [I-466, 3-(2-((3S,5R)-3-(3,5-dimethyl-4H-1,2,4-triazol-4-yl)-5-methylpiperidin-1-yl)pyrimidin-4-yl)-6-(trifluoromethyl)imidazo[1,2-a]pyridine]",10 to 100
13,"O=S1(=O)CCN2CCN(c3ccnc(-c4cnc5ccc(C(F)(F)F)cn45)n3)CC2C1 (stereo not drawn) [I-338, 8-(2-(6-(trifluoromethyl)imidazo[1,2-a]pyridin-3-yl)pyrimidin-4-yl)octahydropyrazino[2,1-c][1,4]thiazine 2,2-dioxide]",100 to 1000
14,"Cc1[nH]ncc1[C@H]1CN(c2ccnc(-c3cnc4ccc(C(F)(F)F)cn34)n2)C[C@@H](C)O1 [I-125, (2R,6S)-2-methyl-6-(5-methyl-1H-pyrazol-4-yl)-4-(2-(6-(trifluoromethyl)imidazo[1,2-a]pyridin-3-yl)pyrimidin-4-yl)morpholine]",< 10
15,"C[C@H]1C[C@@H](N=S(C)(C)=O)CN(c2ccnc(-c3cnc4ccc(S(C)(=O)=O)cn34)n2)C1 [I-312, dimethyl(((3R,5S)-5-methyl-1-(2-(6-(methylsulfonyl)imidazo[1,2-a]pyridin-3-yl)pyrimidin-4-yl)piperidin-3-yl)imino)-λ6-sulfanone]",100 to 1000
16,"Cc1cc(-c2cnc3ccc(Cl)cn23)nc(N2C[C@H](C)C[C@H](N=S(C)(C)=O)C2)n1 [I-168, (((3 S,5R)-1-(4-(6-chloroimidazo[1,2-a]pyridin-3-yl)-6-methylpyrimidin-2-yl)-5-methylpiperidin-3-yl)imino)dimethyl-λ6-sulfanone]",10 to 100
17,"CC(C)(C)OC(=O)N1CCN(c2ccnc(-c3cnc4ccc(C(F)(F)F)cn34)n2)CC1C(N)=O (stereo not drawn) [I-207, tert-butyl 2-carbamoyl-4-(2-(6-(trifluoromethyl)imidazo[1,2-a]pyridin-3-yl)pyrimidin-4-yl)piperazine-1-carboxylate]",100 to 1000
18,"C[C@@H]1C[C@@H](N)CN(c2ccnc(-c3cnc4ccc(Cl)cn34)n2)C1 [I-256, (3R,5R)-1-(2-(6-chloroimidazo[1,2-a]pyridin-3-yl)pyrimidin-4-yl)-5-methylpiperidin-3-amine]",100 to 1000
19,"NC1CN(c2ccnc(-c3cnc4ccc(Cl)cn34)n2)CC[C@H]1O (stereo in doubt) [I-255, (3R,4R)-3-amino-1-(2-(6-chloroimidazo[1,2-a]pyridin-3-yl)pyrimidin-4-yl)piperidin-4-ol]",100 to 1000
20,"CC1(C)CN(c2ccnc(-c3cnc4ccc(C(F)(F)F)cn34)n2)CCN1 [I-334, 3-(4-(3,3-dimethylpiperazin-1-yl)pyrimidin-2-yl)-6-(trifluoromethyl)imidazo[1,2-a]pyridine]",100 to 1000
21,"O=C1NC[C@]12CCCN(c1ccnc(-c3cnc4ccc(C(F)(F)F)cn34)n1)C2 [I-296, (S)-6-(2-(6-(trifluoromethyl)imidazo[1,2-a]pyridin-3-yl)pyrimidin-4-yl)-2,6-diazaspiro[3.5]nonan-1-one]",100 to 1000
22,"CC1CN(c2ccnc(-c3cnc4ccc(C(F)(F)F)cn34)n2)CC(C#N)O1 (stereo not drawn) [I-331, 6-methyl-4-(2-(6-(trifluoromethyl)imidazo[1,2-a]pyridin-3-yl)pyrimidin-4-yl)morpholine-2-carbonitrile]",100 to 1000
23,"O=C(C1CCCN(c2ccnc(-c3cnc4ccc(C(F)(F)F)cn34)n2)C1)N1CCCC1 (stereo not drawn) [I-131, pyrrolidin-1-yl(1-(2-(6-(trifluoromethyl)imidazo[1,2-a]pyridin-3-yl)pyrimidin-4-yl)piperidin-3-yl)methanone]",100 to 1000
24,"C[C@H]1C[C@@H](N=S(C)(C)=O)CN(c2ccnc(-c3cnc4ccc(S(N)(=O)=O)cn34)n2)C1 [I-328, 3-(4-((3R,5S)-3-((dimethyl(oxo)-λ6-sulfaneylidene)amino)-5-methylpiperidin-1-yl)pyrimidin-2-yl)imidazo[1,2-a]pyridine-6-sulfonamide]",100 to 1000
25,"O=C([C@H]1C[C@H]1F)N1CCN(c2ccnc(-c3cnc4ccc(C(F)(F)F)cn34)n2)CC1c1cn[nH]c1 (stereo in doubt) [I-485, (2-(1H-pyrazol-4-yl)-4-(2-(6-(trifluoromethyl)imidazo[1,2-a]pyridin-3-yl)pyrimidin-4-yl)piperazin-1-yl)((1R,2R)-2-fluorocyclopropyl)methanone]",10 to 100

# Same assay, conditions: Ki(app); 280 μM ATP, 200 μM (RS)7 peptide, 4 nM GCN2, 25° C.
row,SMILES,Ki [nM]
1,"Cc1nnc([C@@H]2CN(c3ccnc(-c4cnc5ccc(Cl)cn45)n3)C[C@H](C)O2)o1 (relative stereo) [I-95, cis-4-(2-{6-chloroimidazo[1,2-a]pyridin-3-yl}pyrimidin-4-yl)-2-methyl-6-(5-methyl-1,3,4-oxadiazol-2-yl)morpholine]",10 to 100
2,"Cc1nnc([C@@H]2CN(c3ccnc(-c4cnc5ccc(C(F)(F)F)cn45)n3)C[C@H](C)O2)o1 (relative stereo) [I-93, cis-2-methyl-6-(5-methyl-1,3,4-oxadiazol-2-yl)-4-{2-[6-(trifluoromethyl)imidazo[1,2-a]pyridin-3-yl]pyrimidin-4-yl}morpholine]",10 to 100
3,"O=C1OCC2CN(c3ccnc(-c4cnc5ccc(Cl)cn45)n3)CCN12 (stereo not drawn) [I-99, 7-(2-{6-chloroimidazo[1,2-a]pyridin-3-yl}pyrimidin-4-yl)-hexahydro-1H-[1,3]oxazolo[3,4-a]pyrazin-3-one]",10 to 100
4,"Cn1cc(NC(=O)[C@H]2CCCN(c3ccnc(-c4cnc5cc(F)c(Cl)cn45)n3)C2)cn1 [I-77, (S)-1-[2-(6-Chloro-7-fluoro-imidazo[1,2-a]pyridin-3-yl)-pyrimidin-4-yl]-piperidine-3-carboxylic acid (1-methyl-1H-pyrazol-4-yl)-amide]",100 to 1000
5,"CS(=O)(=O)N1CCC2(CCCN2c2ccnc(-c3cnc4ccc(C(F)(F)F)cn34)n2)CC1 [I-7, 8-Methylsulfonyl-1-[2-[6-(trifluoromethyl)imidazo[1,2-a]pyridin-3-yl]pyrimidin-4-yl]-1,8-diazaspiro[4.5]decane]",100 to 1000

# Reference: patent publication US10793563B2, “GCN2 inhibitors and uses thereof” (Merck Patent GmbH, priority 2018, dated 2020)
